Where a name gives a salt, the structure may show the parent alone. Each block holds one compound with its values, some of them ahead of it.
Test system: tyrosinase activity in S91 mouse melanoma cells
Assay: Induction of tyrosinase activity in S91 cells
Details: for relative melanogenic potency in S91 cells (in words): Table 19 data

Fold Induction of Tyrosinase Relative to Controls (1 mM (Table 16)): 9.2X | Fold Induction of Tyrosinase Relative to Controls (2.5 mM (Table 16)): 15.5X | Fold Induction of Tyrosinase Relative to Controls (5 mM (Table 16)): 45.0X
Compound: OCC1(O)CC2CCC1C2 (stereo not drawn) [2-hydroxy-2-norbornanemethanol]

Fold Induction of Tyrosinase Relative to Controls (0.5 mM (Table 19)): 1.0X | Fold Induction of Tyrosinase Relative to Controls (1 mM (Table 19)): 3.0X | Fold Induction of Tyrosinase Relative to Controls (2.5 mM (Table 19)): 15.5X
Compound: CC1=C[C@H](O)[C@H]2C[C@@H]1C2(C)C (relative stereo) [(S)-cis-verbenol]

Fold Induction of Tyrosinase Relative to Controls (0.5 mM (Table 16)): 6.0X | Fold Induction of Tyrosinase Relative to Controls (1 mM (Table 16)): 8.1X | Fold Induction of Tyrosinase Relative to Controls (2.5 mM (Table 16)): 0.8X
Compound: methyl-5-norbornene-2,3-dimethanol

Fold Induction of Tyrosinase Relative to Controls (0.5 mM (Table 19)): 0.7X | Fold Induction of Tyrosinase Relative to Controls (1 mM (Table 19)): 1.3X
Compound: CC(C)[C@H]1CC[C@H](C)C[C@@H]1O [(1S,2R,5S)-(+)-menthol, (1S,2R,5S)-2-isopropyl-5-methylcyclohexanol]

Fold Induction of Tyrosinase Relative to Controls (0.5 mM (Table 19)): 2.3X | Fold Induction of Tyrosinase Relative to Controls (1 mM (Table 19)): 3.3X | detachment of cells from culture dishes (no tyrosinase analysis) (2.5 mM (Table 19)): NA^2
Compound: CC1C(O)CC2CC1C2(C)C (single isomer, unassigned; (-)) [(−)-isopinocampheol]
toxicity to S91 cells (in words) (higher concentrations tested (Table 19)): resulted in detachment of cells from culture dishes

Fold Induction of Tyrosinase Relative to Controls (1 mM (Table 15)): 2.7X | Fold Induction of Tyrosinase Relative to Controls (5 mM (Table 15)): 2.3X
Compound: O=COC1CC2CCC1C2 (racemic) [± exo-2-norbornyl formate]

Fold Induction of Tyrosinase Relative to Controls (0.5 mM (Table 19)): 3.7X | Fold Induction of Tyrosinase Relative to Controls (1 mM (Table 19)): 2.1X | Fold Induction of Tyrosinase Relative to Controls (2.5 mM (Table 19)): 3.7X
Compound: CC1(C)C2CCC1(C)C(O)C2 (stereo not drawn) [borneol]
relative melanogenic potency in S91 cells (in words): much less activity

Fold Induction of Tyrosinase Relative to Controls (1 mM (Table 15)): 1.5X | Fold Induction of Tyrosinase Relative to Controls (2 mM (Table 15)): 3.0X
Compound: mono- & di-acetate 2,5 & 6,7-norbornanetriol

Fold Induction of Tyrosinase Relative to Controls (1 mM (Table 16)): 1.2X | Fold Induction of Tyrosinase Relative to Controls (2.5 mM (Table 16)): 1.9X | Fold Induction of Tyrosinase Relative to Controls (5 mM (Table 16)): 1.5X
Compound: OCC(CO)(CO)CO [pentaerylthritol]

Fold Induction of Tyrosinase Relative to Controls (1 mM (Table 19)): 4.1X | Fold Induction of Tyrosinase Relative to Controls (2.5 mM (Table 19)): 37.1X | Fold Induction of Tyrosinase Relative to Controls (5 mM (Table 19)): 94.9X
Compound: CC1(C)[C@@H]2CC(=O)[C@@](C)(O)[C@H]1C2 [(1S,2S,5S,)-2-hydroxy-3-pinanone]
relative melanogenic potency in S91 cells (in words): about half as potent as (1R, 2R, 3S, 5R)-(−)-pinanediol

Fold Induction of Tyrosinase Relative to Controls (0.5 mM (Table 19)): 13.6X | Fold Induction of Tyrosinase Relative to Controls (1 mM (Table 19)): 17.6X | Fold Induction of Tyrosinase Relative to Controls (2.5 mM (Table 19)): 2.2X
Compound: CC1(C)C2CC=C(CO)[C@@H]1C2 [(1R)-(−)-myrtenol, (1R)-2-pinen-10-ol]

Fold Induction of Tyrosinase Relative to Controls (1 mM (Table 16)): 1.4X | Fold Induction of Tyrosinase Relative to Controls (2.5 mM (Table 16)): 2.3X | Fold Induction of Tyrosinase Relative to Controls (5 mM (Table 16)): 7.0X
Compound: OCC1(CO)CC=CCC1 [3-cyclohexane-1,1-dimethanol]

Fold Induction of Tyrosinase Relative to Controls (1 mM (Table 19)): 14.3X | Fold Induction of Tyrosinase Relative to Controls (2.5 mM (Table 19)): 96.0X | Fold Induction of Tyrosinase Relative to Controls (5 mM (Table 19)): 36.8X
Compound: CC1(C)C2CCC(CO)[C@]1(O)C2 (stereo in doubt) [(1R)-(−)-trans-pinane-1,10-diol]
relative melanogenic potency in S91 cells (in words): almost-identical to that of (1R, 2R, 3S, 5R)-(−)-pinanediol

Fold Induction of Tyrosinase Relative to Controls (1 mM (Table 15)): 2.2X | Fold Induction of Tyrosinase Relative to Controls (5 mM (Table 15)): 1.0X
Compound: O=C(O)[C@@H]1[C@H](C(=O)O)[C@@H]2C=C[C@H]1C2 [5-norbornene-2,3-cis/endodicarboxylic acid]

Fold Induction of Tyrosinase Relative to Controls (0.5 mM (Table 19)): 1.4X | Fold Induction of Tyrosinase Relative to Controls (1 mM (Table 19)): 1.1X | Fold Induction of Tyrosinase Relative to Controls (2.5 mM (Table 19)): 1.4X | Fold Induction of Tyrosinase Relative to Controls (5 mM (Table 19)): 1.2X
Compound: CC1CCC2CC1C2(C)C [(1S)-(−)-α-pinane]

Fold Induction of Tyrosinase Relative to Controls (1 mM (Table 16)): 0.8X | Fold Induction of Tyrosinase Relative to Controls (2.5 mM (Table 16)): 1.6X | Fold Induction of Tyrosinase Relative to Controls (5 mM (Table 16)): 3.5X
Compound: OC1CC2CCC1C2O (stereo not drawn) [2,7-norbornanediol]

Fold Induction of Tyrosinase Relative to Controls (0.5 mM (Table 19)): 5.2X | Fold Induction of Tyrosinase Relative to Controls (1 mM (Table 19)): 13.2X | Fold Induction of Tyrosinase Relative to Controls (2.5 mM (Table 19)): 21.0X | Fold Induction of Tyrosinase Relative to Controls (5 mM (Table 19)): 7.3X
Compound: C[C@@H]1CC[C@@H](C(C)(C)O)[C@H](O)C1 (relative stereo) [trans-p-menthane-3,8-diol]

Fold Induction of Tyrosinase Relative to Controls (1 mM (Table 19)): 9.9X | Fold Induction of Tyrosinase Relative to Controls (2.5 mM (Table 19)): 68.4X | Fold Induction of Tyrosinase Relative to Controls (5 mM (Table 19)): 39.9X
Compound: CC1(C)[C@@H]2C[C@@H](O)[C@@](C)(O)[C@H]1C2 [(1S,2S,3R,5S)-(+)-pinanediol]

Fold Induction of Tyrosinase Relative to Controls (0.5 mM (Table 19)): 1.6X | Fold Induction of Tyrosinase Relative to Controls (1 mM (Table 19)): 3.0X | Fold Induction of Tyrosinase Relative to Controls (2.5 mM (Table 19)): 17.1X | Fold Induction of Tyrosinase Relative to Controls (5 mM (Table 19)): 11.6X
Compound: CC1CCC(C(C)(C)O)C(O)C1 (stereo not drawn) [cis-p-menthane-3,8-diol]

Fold Induction of Tyrosinase Relative to Controls (0.5 mM (Table 19)): 1.2X | Fold Induction of Tyrosinase Relative to Controls (1 mM (Table 19)): 0.8X | Fold Induction of Tyrosinase Relative to Controls (2.5 mM (Table 19)): 0.9X
Compound: CC1CCC2CC1C2(C)C [(1R)-(−)-α-pinane]

Fold Induction of Tyrosinase Relative to Controls (1 mM (Table 15)): 4.6X | Fold Induction of Tyrosinase Relative to Controls (5 mM (Table 15)): 12.9X
Compound: O=C(O)CC1CC2CCC1C2 (stereo not drawn) [2-norbornaneacetic acid]

Fold Induction of Tyrosinase Relative to Controls (0.5 mM (Table 19)): 6.2X | Fold Induction of Tyrosinase Relative to Controls (1 mM (Table 19)): 7.1X | Fold Induction of Tyrosinase Relative to Controls (2.5 mM (Table 19)): 4.7X
Compound: CC1=CC[C@@H](C(C)(C)O)CC1 [(−)-a-terpineol, (S)-p-menth-1-en-8-ol]

Second part, the compound before the results:

Compound: CC1(C)C2CCC1(C)C(O)C2O (stereo not drawn) [2,3-cis/exo-bornanediol]
Fold Induction of Tyrosinase Relative to Controls (0.5 mM (Table 19)): 10.2X | Fold Induction of Tyrosinase Relative to Controls (1 mM (Table 19)): 28.5X | Fold Induction of Tyrosinase Relative to Controls (2.5 mM (Table 19)): 101X | relative melanogenic potency in S91 cells (in words): more than twice as potent as 2,3-trans-bornanediol

Compound: 1-(exo & endo-2-norbornyl-)-propan-1,2-diol
Fold Induction of Tyrosinase Relative to Controls (0.5 mM (Table 16)): 2.2X | Fold Induction of Tyrosinase Relative to Controls (1 mM (Table 16)): 4.2X | Fold Induction of Tyrosinase Relative to Controls (2.5 mM (Table 16)): 48.5X | Fold Induction of Tyrosinase Relative to Controls (5 mM (Table 16)): 2.0X

Compound: OCC1(CO)CC2CCC1C2 (stereo not drawn) [NBane-2,2-DM, norbornane-2,2-dimethanol]
induction of tyrosinase in S91 cells compared with 5-NBene-2,2-DM (FIG. 2): equivalent potency

Compound: O=C1C(Nc2ccccc2)=CC(=O)c2ncccc21 [LY83583, 6-anilino-5,8-quinolinequinone, reference compound]
effect on induction of melanogenesis by 5-NBene-2,2-DM in S91 cells (in words): reduced induction of melanogenesis by 5-NBene-2,2-DM

Compound: C=C(C)C1CC=C(C)CC1 (single isomer, unassigned; (+)) [R-(+)-limonene, (+)-p-mentha-1,8-diene]
relative melanogenic potency in S91 cells (in words): little or no melanogenic activity

Compound: OC[C@@H]1CCCC[C@@H]1CO [1,2-cis-cyclohexanedimethanol]
Fold Induction of Tyrosinase Relative to Controls (1 mM (Table 16)): 0.9X | Fold Induction of Tyrosinase Relative to Controls (2.5 mM (Table 16)): 6.1X | detachment of cells from culture dishes (no tyrosinase analysis) (5 mM (Table 16)): NA^

Compound: CC1(C)C2CCC1(C)C(O)C2O (stereo not drawn) [2,3-trans-bornanediol]
Fold Induction of Tyrosinase Relative to Controls (0.5 mM (Table 19)): 4.7X | Fold Induction of Tyrosinase Relative to Controls (1 mM (Table 19)): 12.8X | Fold Induction of Tyrosinase Relative to Controls (2.5 mM (Table 19)): 22.1X

Compound: OC1C2CCC(C2)C1O (stereo not drawn) [2,3-c/e-NBaneD, 2,3-cis/exo-Norbornanediol]
induction of tyrosinase in S91 cells compared with 5-NBene-2,2-DM (FIG. 2): Lesser induction

Compound: 2,3-cis & trans-bornanediol
Fold Induction of Tyrosinase Relative to Controls (0.5 mM (Table 19)): 9.9X | Fold Induction of Tyrosinase Relative to Controls (1 mM (Table 19)): 37.3X | Fold Induction of Tyrosinase Relative to Controls (2.5 mM (Table 19)): 99.7X | relative melanogenic potency in S91 cells (in words): approximately twice as much melanogenic activity as (1R, 2R, 3S, 5R)-(−)-pinanediol

Compound: COC(=O)[C@@]1(OC)C[C@H]2O[C@]1(C)n1c3ccccc3c3c4c(c5c6ccccc6n2c5c31)C(=O)N(C)C4 [KT5823, reference compound]
effect on induction of melanogenesis by 5-NBene-2,2-DM in S91 cells (in words): reduced induction of melanogenesis by 5-NBene-2,2-DM

Compound: OCC1CCC(CO)CC1 (stereo not drawn) [1,4-cyclohexanedimethanol]
Fold Induction of Tyrosinase Relative to Controls (1 mM (Table 16)): 1.2X | Fold Induction of Tyrosinase Relative to Controls (2.5 mM (Table 16)): 1.7X | Fold Induction of Tyrosinase Relative to Controls (5 mM (Table 16)): 3.2X

Compound: Catalase [reference compound]
effect on induction of tyrosinase by 5-NBene-2,2-DM in S91 cells (in words): did not inhibit the action of 5-NBene-2,2-DM | Tyrosinase Relative to Control (500 Units Catalase/ml): 1.9X | Tyrosinase dpm/hr/ug Protein (500 Units Catalase/ml): 745 dpm/hr/ug Protein | Tyrosinase Relative to Control (1000 Units Catalase/ml): 1.7X | Tyrosinase dpm/hr/ug Protein (1000 Units Catalase/ml): 691 dpm/hr/ug Protein

Compound: C1CC2CCC1C2 [NBane, Norbornane]
induction of tyrosinase in S91 cells compared with 5-NBene-2,2-DM (FIG. 2): Lesser induction | induction of tyrosinase (1 or 5 mM (FIG. 2)): 2 fold | induction of tyrosinase relative to untreated or ethanol (ETOH) treated control S91 cells (FIG. 2): 2 fold

Compound: CC1(C)N([O])C(c2ccccc2)=[N+]([O-])C1(C)C [PTIO, 2-phenyl-4,4,5,5-tetramethylimidazoline-1-oxyl-3-oxide, reference compound]
effect on induction of melanogenesis by 5-NBene-2,2-DM in S91 cells (in words): reduced induction of melanogenesis by 5-NBene-2,2-DM

Compound: CCSC(=N)N [S-EITU, S-ethylisothiourea, reference compound]
tyrosinase activity in S91 cells (in words) (1000 nM S-EITU): complete ablation of tyrosinase activity

Compound: Bisindolylmaleimide [GF109203X, reference compound]
effect on induction of tyrosinase by 5-NBene-2,2-DM in S91 cells (in words): augmentation of basal and 5-NBene-2,2-DM-induced tyrosinase levels | Tyrosinase Relative to Control (0.1 uM GF109203X): 2.6 | Tyrosinase dpm/hr/ug Protein (0.1 uM GF109203X): 1025 dpm/hr/ug Protein | Tyrosinase Relative to Control (1 uM GF109203X): 6.1X | Tyrosinase dpm/hr/ug Protein (1 uM GF109203X): 2407 dpm/hr/ug Protein

Compound: 2,5 & 6,7-norbornanetriol
Fold Induction of Tyrosinase Relative to Controls (1 mM (Table 15)): 5.1X | Fold Induction of Tyrosinase Relative to Controls (2 mM (Table 15)): 5.1X

Compound: Cl.Cl.O=S(=O)(NCCNCC=Cc1ccc(Br)cc1)c1cccc2cnccc12 [H-89, reference compound]
effect on induction of tyrosinase by 5-NBene-2,2-DM in S91 cells (in words): augmentation of basal and 5-NBene-2,2-DM-induced tyrosinase levels | Tyrosinase Relative to Control (1 uM H-89): 1.3X | Tyrosinase dpm/hr/ug Protein (1 uM H-89): 507 dpm/hr/ug Protein | Tyrosinase Relative to Control (10 uM H-89): 3.1X | Tyrosinase dpm/hr/ug Protein (10 uM H-89): 1236 dpm/hr/ug Protein

Compound: OC1CC2CCC1C2 (stereo not drawn) [α-NBane-ol, α-Norborneol]
induction of tyrosinase in S91 cells compared with 5-NBene-2,2-DM (FIG. 2): Lesser induction

From patent publication US7250157B2, “Dermatological compositions and methods” (Applied Genetics Incorporated Dermatics, priority 1996, dated 2007)
